Assay [1] has as its target T1, CDK2/cyclin E (Homo sapiens, UniProt P24941).
T1 construct: His; made in house; host or cells: Sf9 insect cells (baculovirus)
Kind of assay: CDK2/cyclin E kinase assay (GST-Rb phosphorylation).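 Further: enzyme source: His-tagged CDK2/cyclin E co-expressed in Sf9 insect cells via baculovirus, then purified by metal-chelate chromatography.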 In kind it is biochemical. To be noted: Table 2, further results for CDK2/cyclin E inhibition; read-out: CDK2/cyclin E.

Assay [2] concerns A549. Put plainly: 72-h MTT cytotoxicity assay, A549. In kind it is cell-based, human. To be noted: Homo sapiens, Table 4, additional data for cytotoxicity assay using the A549 cell line; read-out: A549. Here is the method: Selected compounds from the above examples were subjected to a standard cellular proliferation assay using a range of different human tumour cell lines. Standard 72-h MTT (thiazolyl blue; 3-{4,5-dimethylthiazol-2-yl}-2,5-diphenyltetrazolium bromide) assays were performed (Haselsberger, K.; Peterson, D. C.; Thomas, D. G.; Darling, J. L. Anti Cancer Drugs 1996, 7, 331-8; Loveland, B. E.; Johns, T. G.; Mackay, I. R.; Vaillant, F.; Wang, Z. X.; Hertzog, P. J. Biochemistry International 1992, 27, 501-10). Human tumour cell lines were obtained from the ATCC (American Type Culture Collection, 10801 University Boulevard, Manessas, Va. 20110-2209, USA).

On to `Cc1nc(C)c(-c2ccnc(Nc3cccc(I)c3)n2)s1` [Compound 33, {4-(2,4-Dimethyl-thiazol-5-yl)-pyrimidin-2-yl}-(3-iodo-phenyl)-amine], for which the IC50 worked out at 200 nM in assay [1] and 61000 ± 55000 nM in assay [2].

`COc1ccccc1Nc1nccc(-c2sc(C)nc2C)n1` [Compound 37, {4-(2,4-Dimethyl-thiazol-5-yl)-pyrimidin-2-yl}-(2-methoxy-phenyl)-amine]: the IC50 in assay [1] was 6400 ± 100 nM; in assay [2], 25000 nM.

Take `COc1cccc(Nc2nccc(-c3sc(C)nc3C)n2)c1` [Compound 38, {4-(2,4-Dimethyl-thiazol-5-yl)-pyrimidin-2-yl}-(3-methoxy-phenyl)-amine]: the IC50 in assay [1] was determined as 400 ± 300 nM; in assay [2], 4500 ± 1600 nM.

Turning to `COc1ccc(Nc2nccc(-c3sc(C)nc3C)n2)cc1` [Compound 39, {4-(2,4-Dimethyl-thiazol-5-yl)-pyrimidin-2-yl}-(4-methoxy-phenyl)-amine], the values for the IC50 in assay [1] and in assay [2] were 220 ± 70 nM and 300 nM, respectively.

With `Cc1nc(C)c(-c2ccnc(Nc3ccc(O)c([N+](=O)[O-])c3)n2)s1` [Compound 45, 4-{4-(2,4-Dimethyl-thiazol-5-yl)-pyrimidin-2-ylamino}-2-nitro-phenol], the IC50 in assay [1] worked out at 210 ± 160 nM; in assay [2], 3300 ± 500 nM.

As to `Cc1nc(C)c(-c2ccnc(Nc3ccc(C#N)cc3)n2)s1` [Compound 48, 4-{4-(2,4-Dimethyl-thiazol-5-yl)-pyrimidin-2-ylamino}-benzonitrile], the IC50 was determined as 30 nM in assay [1] and 6700 ± 1100 nM in assay [2].

For the compound `Cc1nc(C)c(-c2ccnc(Nc3cccc(C#N)c3)n2)s1` [Compound 49, 3-{4-(2,4-Dimethyl-thiazol-5-yl)-pyrimidin-2-ylamino}-benzonitrile], the IC50 in assay [1] came to 20 nM; in assay [2], 2200 ± 20 nM.

As to `COC(=O)c1ccc(Nc2nccc(-c3sc(C)nc3C)n2)cc1` [Compound 50, 4-{4-(2,4-Dimethyl-thiazol-5-yl)-pyrimidin-2-ylamino}-benzoic acid methyl ester], the IC50 turned out to be 300 nM in assay [1] and 8800 ± 10000 nM in assay [2].

`Cc1nc(C)c(-c2ccnc(Nc3ccc(C)c(Cl)c3)n2)s1` [Compound 51, (3-Chloro-4-methyl-phenyl)-{4-(2,4-dimethyl-thiazol-5-yl)-pyrimidin-2-yl}-amine]: the IC50 in assay [1] is 750 nM; in assay [2], 300 ± 300 nM.

As to `COc1ccc(Nc2nccc(-c3sc(C)nc3C)n2)cc1Cl` [Compound 52, (3-Chloro-4-methoxy-phenyl)-{4-(2,4-dimethyl-thiazol-5-yl)-pyrimidin-2-yl}-amine], the figures for the IC50 in assay [1] and in assay [2] were 60 nM and 800 ± 300 nM, respectively.

Regarding `Cc1nc(C)c(-c2ccnc(Nc3ccc(C(=O)O)cc3)n2)s1` [Compound 53, 4-{4-(2,4-Dimethyl-thiazol-5-yl)-pyrimidin-2-ylamino}-benzoic acid], the IC50 is 700 ± 400 nM in assay [1] and 12000 ± 5000 nM in assay [2].

Take `Cc1nc(-c2ccccc2)sc1-c1ccnc(Nc2ccc(O)cc2)n1` [Compound 60, 4-{4-(4-Methyl-2-phenyl-thiazol-5-yl)-pyrimidin-2-ylamino}-phenol]: the IC50 in assay [1] was 4000 nM; in assay [2] it was 2100 ± 300 nM.

`CNc1nc(C)c(-c2ccnc(Nc3ccc(F)cc3)n2)s1` [Compound 62, (4-Fluoro-phenyl)-{4-(4-methyl-2-methylamino-thiazol-5-yl)-pyrimidin-2-yl}-amine]: the values for the IC50 in assay [1] and in assay [2] were 60 ± 30 nM and 1100 ± 200 nM, respectively.

`CNc1nc(C)c(-c2ccnc(Nc3ccc(I)cc3)n2)s1` [Compound 72, (4-Iodo-phenyl)-{4-(4-methyl-2-methylamino-thiazol-5-yl)-pyrimidin-2-yl}-amine]: the figures for the IC50 in assay [1] and in assay [2] were 900 nM and 800 ± 500 nM, respectively.

With `CNc1nc(C)c(-c2ccnc(Nc3ccc(O)c([N+](=O)[O-])c3)n2)s1` [Compound 73, 4-{4-(4-Methyl-2-methylamino-thiazol-5-yl)-pyrimidin-2-ylamino}-2-nitro-phenol], the values for the IC50 in assay [1] and in assay [2] were 200 nM and 9000 ± 4000 nM, respectively.

For the compound `CCOC(=O)c1ccc(Nc2nccc(-c3sc(NC)nc3C)n2)cc1Cl` [Compound 74, 2-Chloro-4-{4-(4-methyl-2-methylamino-thiazol-5-yl)-pyrimidin-2-ylamino}-benzoic acid ethyl ester], the IC50 was determined as 100 nM in assay [1] and 18000 ± 4000 nM in assay [2].

Turning to `CCNc1nc(C)c(-c2ccnc(Nc3ccc(F)cc3)n2)s1` [Compound 75, {4-(2-Ethylamino-4-methyl-thiazol-5-yl)-pyrimidin-2-yl}-(4-fluoro-phenyl)-amine], the IC50 was found to be 200 nM in assay [1] and 3200 ± 400 nM in assay [2].

As to `CNc1nc(C)c(-c2ccnc(Nc3cccc([N+](=O)[O-])c3)n2)s1` [Compound 76, (4-{4-Methyl-2-methylamino-thiazol-5-yl)-pyrimidin-2-yl}-(3-nitro-phenyl)-amine], the IC50 in assay [1] amounted to 800 nM; in assay [2], 3000 ± 900 nM.

On to `C=CCNc1nc(C)c(-c2ccnc(Nc3ccc(F)cc3)n2)s1` [Compound 82, {4-(2-Allylamino-4-methyl-thiazol-5-yl)-pyrimidin-2-yl}-(4-fluoro-phenyl)-amine], for which the figures for the IC50 in assay [1] and in assay [2] were 200 nM and 1100 ± 300 nM, respectively.

Regarding `CNc1nc(C)c(-c2ccnc(Nc3cccc(Br)c3)n2)s1` [Compound 83, (3-Bromo-phenyl)-{4-(4-methyl-2-methylamino-thiazol-5-yl)-pyrimidin-2-yl}-amine], the IC50 in assay [1] came out at 200 nM; in assay [2], 600 ± 300 nM.

`CNc1nc(C)c(-c2ccnc(Nc3ccc(Br)cc3)n2)s1` [Compound 86, (4-Bromo-phenyl)-{4-(4-methyl-2-methylamino-thiazol-5-yl)-pyrimidin-2-yl}-amine]: the values for the IC50 in assay [1] and in assay [2] were 130 nM and 8000 ± 6000 nM, respectively.

On to `CNc1nc(C)c(-c2ccnc(Nc3ccc(Cl)cc3)n2)s1` [Compound 87, (4-Chloro-phenyl)-{4-(4-methyl-2-methylamino-thiazol-5-yl)-pyrimidin-2-yl}-amine], for which the IC50 in assay [1] turned out to be 80 nM; in assay [2], 1700 ± 100 nM.

For the compound `CNc1nc(C)c(-c2ccnc(Nc3cccc(OC)c3)n2)s1` [Compound 88, (3-Methoxy-phenyl)-{4-(4-methyl-2-methylamino-thiazol-5-yl)-pyrimidin-2-yl}-amine], the values for the IC50 in assay [1] and in assay [2] were 200 nM and 400 ± 100 nM, respectively.

On to `CNc1nc(C)c(-c2ccnc(Nc3ccc(C(F)(F)F)cc3)n2)s1` [Compound 89, {4-(4-Methyl-2-methylamino-thiazol-5-yl)-pyrimidin-2-yl}-(4-trifluoromethyl-phenyl)-amine], for which the IC50 came out at 1200 nM in assay [1] and 18000 ± 11000 nM in assay [2].

As for `CNc1nc(C)c(-c2ccnc(Nc3cccc(C(F)(F)F)c3)n2)s1` [Compound 90, {4-(4-Methyl-2-methylamino-thiazol-5-yl)-pyrimidin-2-yl}-(3-trifluoromethyl-phenyl)-amine], the IC50 was found to be 200 nM in assay [1] and 1800 ± 800 nM in assay [2].

Take `Cc1nc(C)c(-c2ccnc(Nc3ccc(I)cc3F)n2)s1` [Compound 94, {4-(2,4-Dimethyl-thiazol-5-yl)-pyrimidin-2-yl}-(2-fluoro-4-iodo-phenyl)-amine]: the IC50 is 600 nM in assay [1] and 500 ± 600 nM in assay [2].

In the case of `Cc1nc(C)c(-c2ccnc(Nc3ccc(O)c(Cl)c3)n2)s1` [Compound 97, 2-Chloro-4-{4-(2,4-dimethyl-thiazol-5-yl)-pyrimidin-2-ylamino}-phenol], the IC50 came to 600 nM in assay [1] and 4200 ± 400 nM in assay [2].
